In patent US12616203B2, “Use of 3-isoxazolidinones compounds as selective herbicides” (FMC Corporation, priority 2014, dated 2026):
“Also recorded” adds a separate entry of the source.

Legend:
[1] = tested on: Pennsylvania smartweed; experiment: Ex33 PRE 2,4-DC + fluthiacet-methyl + pyroxasulfone, % control 28 DAT, Colby; assay type: in vivo, Polygonum pensylvanicum
From the text: (§1) ANTHEM® (fluthiacet-methyl, 0.69% plus pyroxasulfone, 22.61%) was included as a standard at labeled rate, Fluthiacet-methyl at 4.9 g ai/ha and pyroxasulfone at 165 g ai/ha. […] The following weeds were screened, Palmer amaranth, Pennsylvania smartweed, velvetleaf, green foxtail, morningglory, Italian ryegrass, prickly sida, and yellow nutsedge. Crops screened were cotton, lentil, mung bean, bush bean, and cowpea. […] Thereafter flats were watered and fertilized routinely.

[2] = tested on: weeds; Wheat and canola; experiment: Ex35 PRE greenhouse; assay type: in vivo; conditions: rate in the words
From the text: Crops screened were wheat and canola.

[3] = tested on: common chickweed (CC); experiment: Ex2 PRE greenhouse, % control; assay type: in vivo, Stellaria media; conditions: 28 DAT, g ai/ha by row: r12-40 2,4-DC 31.25/62.5/125/250/375 (3 rows each) + metazachlor 250/500/750 (cycling), r42-46 2,4-DC 31.25/62.5/125/250/375, r47-49 metazachlor 250/500/750
Experimental: Test compositions containing 2,4 DC Example 1B and metazachlor (Butisan® S, 43.1% active ingredient, BASF) and mixtures of 2-(2,4-dichlorophenyl)methyl-4,4-dimethyl-3-isoxazolidinone and metazachlor, were diluted with water to provide the appropriate test rate concentrations.
The test crops were wheat and canola (Brassica napus), the test weeds were Italian ryegrass (IR) (Lolium perenne. multiflorum), annual bluegrass (AB) (Poa annua), common lambsquarters (CL) (Chenopodium album), littleseed canarygrass (LC) (Phalaris minor), common chickweed (CC) (Stellaria media), and corn poppy (CP) (Papaver rhoeas).
For pre-emergence testing, four disposable fiber flats (6″ by 10″) for each rate of application of each herbicide solution were filled with top soil, to which seeds of each species were planted in furrows made by a template pressed on the top of the soil. The furrows were covered with soil after planting the seed and were watered well before application of the test compounds. […]
The control of weeds was evaluated in each experimental test at 21 days after treatment (DAT) for corn poppy and wheat and 28 DAT for all other species. […]
Percent control was determined by a method similar to the 0 to 100 rating system disclosed in “Research Methods in Weed Science,” 2nd ed., B. Truelove, Ed.; Southern Weed Science Society; Auburn University, Auburn, Ala., 1977.

[4] = tested on: weeds; canola, and wheat; experiment: Ex39 PRE greenhouse; assay type: in vivo; conditions: weed and rate in the words
From the text: (§2) Thereafter flats were watered and fertilized routinely.

[5] = tested on: weeds; Wheat, barley, and oil seed rape (OSR); experiment: Ex19 PRE greenhouse; assay type: in vivo; conditions: rate in the words
From the text: In this study, the crops tested included Wheat, barley, and oil seed rape (OSR).
To determine weed efficacy and wheat, barley or OSR selectivity, 2,4 DC (CS 36.7%) and Diflufenican (CS 19.5%) were applied preemergence either alone or as tank-mix partners at the following rates. 2,4 DC was applied at 125, 170, 210 and 250 g ai/ha while Diflufenican was applied at 50, 75, and 100 g ai/ha. Pyroxasulfone (KIH-485, 85%) at 74.3 g ai/ha, pendimethalin (Prowl 3.3EC, 37.4%) at 1200 g ai/ha, or a premix of chlorsulfuron plus metsulfuron-methyl (Report Extra, 75%) at 15.8 g ai/ha were applied as commercial standards.
Herbicides included as standards for comparison were pyroxasulfone, pendimethalin, and a pre mix of chlorsulfuron plus metsulfuron methyl, all applied at labeled rates as indicated above. Treatments were replicated 3 times. […] Thereafter flats were watered and fertilized routinely.

[6] = tested on: Velvetleaf; experiment: Ex33 PRE 2,4-DC + fluthiacet-methyl + pyroxasulfone, % control 28 DAT, Colby; assay type: in vivo, Abutilon theophrasti
From the text: as §1

[7] = tested on: weeds; Wheat and Barley; experiment: Ex41 POST greenhouse; assay type: in vivo; conditions: rate in the words
Experimental: Treatments were applied to wheat and barley crops.
Nonionic surfactant was added at 0.5% v/v in all treatments. Treatments were applied to wheat (5.5″), barley (5″), wild oat (5.5″), common chickweed (2″), wild buckwheat (3″), and common lambsquarters (2″). All plant species were direct seeded into 3″ plastic pots using metro-mix as growth media and pots were watered well before application and watered 24 h after application. Plants were watered and fertilized routinely after treatment application. Each treatment was replicated four times.

[8] = tested on: weeds; Wheat and Barley; experiment: Ex36 POST greenhouse; assay type: in vivo; conditions: rate in the words
From the text: Crops screened were wheat and barley.

[9] = tested on: weeds; canola; experiment: Ex34 PRE greenhouse; assay type: in vivo; conditions: rate in the words
From the text: as §2

[10] = tested on: weeds; Wheat and canola; experiment: Ex28 PRE greenhouse; assay type: in vivo; conditions: 28 DAT, rate in the words
From the text: The tested weeds in this study are redroot pigweed (Amaranth retroflexus, AMARE), Italian ryegrass (Lolium perenne. multiflorum, LOLMU), wild mustard (Sinapis arvensis, SINAR), annual bluegrass (Poa annua, POAAN), wild oat (Avena fatua, AVEFA), blackgrass (Alopecurus myosuroides, ALOMY), common lambsquarters (Chenopodium album, CHEAL), littleseed canarygrass (Phalaris minor, PHAMI), common chickweed (Stellaria media, STEME), corn poppy (Papaver rhoeas, PAPRH), and silky windgrass (Apera spica-venti, APESV). The tested crops are wheat and canola.
Additionally, 2,4 DC was applied alone at 400 g ai/ha.
Treatments were applied before the emergence of redroot pigweed, Italian ryegrass, wild oat, blackgrass, littleseed canarygrass, common chickweed, common lambsquarters, corn poppy, wild mustard, annual bluegrass, silky windgrass, canola, and wheat. […] Flats were watered and fertilized routinely after treatment application.

[11] = tested on: Quackgrass; experiment: Ex32 PRE 2,4-DC + pyroxasulfone + sulfentrazone, % control 28 DAT, Colby; assay type: in vivo, Elymus repens
From the text: Treatments were applied at the time of planting to Italian ryegrass, green foxtail, littleseed canarygrass, wild oat, quackgrass, dandelion, common chickweed, white clover, yellow nutsedge, redroot pigweed, field bindweed, canola, and wheat. […] Flats were watered and fertilized routinely after treatment application.

SMILES: CC1(C)CON(Cc2ccc(Cl)cc2Cl)C1=O [2,4-DC, 2-(2,4-dichlorophenyl)methyl-4,4-dimethyl-3-isoxazolidinone]
- X ([1]; 2,4-DC alone 31 g ai/ha): 10%
- X ([1]; 2,4-DC alone 63 g ai/ha): 23%
- X ([1]; 2,4-DC alone 125 g ai/ha): 57%
- X ([1]; 2,4-DC alone 250 g ai/ha): 100%
- X ([1]; 2,4-DC alone 375 g ai/ha): 99%
- weed control / crop safety in words [2]: alone at 50 g ai/ha controlled (≥85% injury) common chickweed, at 100 g controlled blackgrass and wild buckwheat; also recorded: alone was safe on wheat and canola (≤10% injury) when applied at 50 and 100 g
- % Control CC [3]: 100%
- weed control in words [4]: alone at ≥50 g ai/ha controlled (≥85%) Canada thistle, dandelion, or common chickweed
- weed control / crop safety in words [5]: applied at 125 g ai/ha provided suppression (70-84% injury) to corn poppy, higher rates controlled (≥85% injury) corn poppy; also recorded: Wheat, barley, and oilseed rape (OSR) were safe (≤10% injury) with all stand alone treatments
- X ([6]; 2,4-DC alone 31 g ai/ha): 7%
- X ([6]; 2,4-DC alone 63 g ai/ha): 23%
- X ([6]; 2,4-DC alone 125 g ai/ha): 27%
- X ([6]; 2,4-DC alone 250 g ai/ha): 30%
- X ([6]; 2,4-DC alone 375 g ai/ha): 89%
- weed control / crop safety in words [7]: Wheat was safe with 2,4-DC alone up to 170 g ai/ha, barley was not safe with any rate of 2,4-DC alone
- weed control / crop safety in words [8]: alone applied to barley was safe at 50 g ai/ha
- weed control / crop safety in words [9]: applied alone at 31.2 g ai/ha controlled common chickweed, at 125 g controlled common lambsquarters and injured canola, at 250 g controlled blackgrass and Italian ryegrass
- weed control / crop safety in words [10]: alone provided control of pigweed and corn poppy at 400 g, Italian ryegrass at ≥200 g, blackgrass and lambsquarters at 400 g, and chickweed at all rates; also recorded: caused greater than 10% injury to canola at all rates and 2,4 DC was safe on wheat up to 200 g ai/ha
- X ([11]; 2,4-DC alone 50 g ai/ha): 0%
- X ([11]; 2,4-DC alone 100 g ai/ha): 7%
- X ([11]; 2,4-DC alone 200 g ai/ha): 10%
